Patent US11331299B2, “Medicinal use of serrulatane diterpenes” (The University of Sydney, priority 2016, dated 2022)
Where two headings read alike, the source gives them in different places.

Test system: 280 human cancer cell lines
Assay: OncoPanel cell proliferation assay (10-day)
Format: cell-based
Details: Homo sapiens; for EC50: read-out: Cell Count EC50; for IC50: read-out: Cell Count IC50
[1] = SW872, SW872, Soft Tissue - Sarcoma
[2] = SW 954, SW954, Female GU - Vulva
[3] = SW982, SW982, Soft Tissue - Sarcoma
[4] = SW1353, SW1353, Soft Tissue - Osteosarcoma
[5] = TE 125.T, Soft Tissue - Sarcoma
[6] = TE 381.T, Soft Tissue - Sarcoma
[7] = U2OS, Soft Tissue - Osteosarcoma
[8] = U-118-MG, U-118 MG, CNS - Glioma
[9] = VA-ES-BJ, Soft Tissue - Sarcoma
[10] = WM 266-4, WM-266-4, Skin (Melanoma)
[11] = NCI-H295R, Endocrine - Adrenal gland

`CC(C)=CCC[C@H](CO)[C@@H]1CC[C@@H](C)c2c1cc(C)c(O)c2O` [Compound 1, 7,8,18-trihydroxyserrulat-14-ene] was tested, and the EC50 [1] was 0.96 µM, the GI50 (SW872, SW872, Soft Tissue - Sarcoma, read-out: Cell Count GI50) was 0.96 µM and the IC50 [1] was 0.96 µM. For the same compound, the EC50 (SW900, SW900, Lung - SCLC) was 3.29 µM, the GI50 (SW900, SW900, Lung - SCLC, read-out: Cell Count GI50) was 3.24 µM and the IC50 (SW900, SW900, Lung - SCLC) was 3.33 µM. For the same compound, the EC50 (SW948, SW948, Colon) was 2.21 µM, the GI50 (SW948, SW948, Colon, read-out: Cell Count GI50) was 2.2 µM and the IC50 (SW948, SW948, Colon) was 2.21 µM. For the same compound, the EC50 [2] was 7.63 µM, the GI50 (SW 954, SW954, Female GU - Vulva, read-out: Cell Count GI50) was 7.6 µM and the IC50 [2] was 7.63 µM. It also gave an EC50 [3] of 1.07 µM, a GI50 (SW982, SW982, Soft Tissue - Sarcoma, read-out: Cell Count GI50) of 1.07 µM and an IC50 [3] of 1.07 µM. The EC50 (SW1088, SW1088, CNS - Glioma) was 2.44 µM, the GI50 (SW1088, SW1088, CNS - Glioma, read-out: Cell Count GI50) was 2.43 µM and the IC50 (SW1088, SW1088, CNS - Glioma) was 2.44 µM. For the same compound, the EC50 [4] was 1 µM, the GI50 (SW1353, SW1353, Soft Tissue - Osteosarcoma, read-out: Cell Count GI50) was 0.99 µM and the IC50 [4] was 1 µM. For the same compound, the EC50 (SW1417, SW1417, Colon) was 3.15 µM, the GI50 (SW1417, SW1417, Colon, read-out: Cell Count GI50) was 3.07 µM and the IC50 (SW1417, SW1417, Colon) was 3.15 µM. The EC50 (SW1463, SW1463, Colon) was 3.73 µM, the GI50 (SW1463, SW1463, Colon, read-out: Cell Count GI50) was 3.71 µM and the IC50 (SW1463, SW1463, Colon) was 3.75 µM. The EC50 (SW1783, SW1783, CNS - Glioma) was 3.19 µM, the GI50 (SW1783, SW1783, CNS - Glioma, read-out: Cell Count GI50) was 3.09 µM and the IC50 (SW1783, SW1783, CNS - Glioma) was 3.19 µM. It also gave an EC50 (SW-403, SW403, Colon) of 8.09 µM, a GI50 (SW-403, SW403, Colon, read-out: Cell Count GI50) of 7.89 µM and an IC50 (SW-403, SW403, Colon) of 8.11 µM. For the same compound, the EC50 (SW-620, SW620, Colon) was 1.48 µM, the GI50 (SW-620, SW620, Colon, read-out: Cell Count GI50) was 1.48 µM and the IC50 (SW-620, SW620, Colon) was 1.48 µM. For the same compound, the EC50 (SiHa, Female GU - Cervix) was 5.22 µM, the GI50 (SiHa, Female GU - Cervix, read-out: Cell Count GI50) was 5.17 µM and the IC50 (SiHa, Female GU - Cervix) was 5.23 µM. For the same compound, the EC50 (T24, Bladder) was 1.44 µM, the GI50 (T24, Bladder, read-out: Cell Count GI50) was 1.44 µM and the IC50 (T24, Bladder) was 1.44 µM. For the same compound, the GI50 (T47D, Breast, read-out: Cell Count GI50) was 4.28 µM, the GI50 (T98G, CNS - Glioma, read-out: Cell Count GI50) was 2.05 µM and the EC50 (TCC-SUP, TCCSUP, Bladder) was 1.75 µM. For the same compound, the GI50 (TCC-SUP, TCCSUP, Bladder, read-out: Cell Count GI50) was 1.72 µM, the IC50 (TCC-SUP, TCCSUP, Bladder) was 1.75 µM and the EC50 [5] was 6.47 µM. It also gave a GI50 (TE 125.T, Soft Tissue - Sarcoma, read-out: Cell Count GI50) of 1.48 µM, an IC50 [5] of 9.21 µM and an EC50 [6] of 1.62 µM. It also gave a GI50 (TE 381.T, Soft Tissue - Sarcoma, read-out: Cell Count GI50) of 1.59 µM, an IC50 [6] of 1.62 µM and an EC50 (TF-1, Leukemia) of 2.11 µM. The GI50 (TF-1, Leukemia, read-out: Cell Count GI50) was 1.98 µM, the IC50 (TF-1, Leukemia) was 2.11 µM and the EC50 (THP-1, Thp1, Leukemia) was 1.38 µM. The GI50 (THP-1, Thp1, Leukemia, read-out: Cell Count GI50) was 1.34 µM, the IC50 (THP-1, Thp1, Leukemia) was 1.38 µM and the EC50 (TUR, Lymphoma) was 5.09 µM. It also gave a GI50 (TUR, Lymphoma, read-out: Cell Count GI50) of 5.08 µM, an IC50 (TUR, Lymphoma) of 5.09 µM and an EC50 [7] of 1.66 µM. The GI50 (U2OS, Soft Tissue - Osteosarcoma, read-out: Cell Count GI50) was 1.65 µM, the IC50 [7] was 1.66 µM and the EC50 (U138-MG, U-138MG, CNS - Glioma) was 6.29 µM. The GI50 (U138-MG, U-138MG, CNS - Glioma, read-out: Cell Count GI50) was 6.15 µM, the IC50 (U138-MG, U-138MG, CNS - Glioma) was 6.33 µM and the EC50 (U266B1, Myeloma) was 3.22 µM. The GI50 (U266B1, Myeloma, read-out: Cell Count GI50) was 3.08 µM, the IC50 (U266B1, Myeloma) was 3.22 µM and the EC50 (U-87 MG, CNS - Glioma) was 2.12 µM. It also gave a GI50 (U-87 MG, CNS - Glioma, read-out: Cell Count GI50) of 2.04 µM, an IC50 (U-87 MG, CNS - Glioma) of 2.12 µM and an EC50 [8] of 4.56 µM. The GI50 (U-118-MG, U-118 MG, CNS - Glioma, read-out: Cell Count GI50) was 4.49 µM, the IC50 [8] was 4.58 µM and the EC50 (UMUC3, UM-UC-3, Bladder) was 1.85 µM. It also gave a GI50 (UMUC3, UM-UC-3, Bladder, read-out: Cell Count GI50) of 1.84 µM, an IC50 (UMUC3, UM-UC-3, Bladder) of 1.85 µM and an EC50 [9] of 3.67 µM. The GI50 (VA-ES-BJ, Soft Tissue - Sarcoma, read-out: Cell Count GI50) was 3.55 µM, the IC50 [9] was 3.67 µM and the EC50 [10] was 1.15 µM. The GI50 (WM 266-4, WM-266-4, Skin (Melanoma), read-out: Cell Count GI50) was 1.14 µM, the IC50 [10] was 1.15 µM and the EC50 (WiDr, Colon) was 2.32 µM. The GI50 (WiDr, Colon, read-out: Cell Count GI50) was 2.31 µM, the IC50 (WiDr, Colon) was 2.32 µM and the EC50 (Y79, Eye) was 5.6 µM. It also gave a GI50 (Y79, Eye, read-out: Cell Count GI50) of 5.33 µM, an IC50 (Y79, Eye) of 5.6 µM and an EC50 (YAPC, Pancreas) of 1.91 µM. It also gave a GI50 (YAPC, Pancreas, read-out: Cell Count GI50) of 1.9 µM, an IC50 (YAPC, Pancreas) of 1.91 µM and an EC50 [11] of 14.7 µM. For the same compound, the IC50 [11] was 14.7 µM, the EC50 (T47D, Breast) was 4.63 µM and the IC50 (T47D, Breast) was 4.63 µM. For the same compound, the EC50 (T98G, CNS - Glioma) was 2.05 µM, the IC50 (T98G, CNS - Glioma) was 2.05 µM and the GI50 (read-out: GI50) was 0.4 to 1 µM.
